In patent publication US11541050B2, “Pyrimidine derivatives for the treatment of viral infections” (JANSSEN SCIENCES IRELAND UC, priority 2011, dated 2023):

How the values were obtained:
[1] = target: T1, human TLR8 (wild type sequence) (Homo sapiens, UniProt Q9NR97); assay: TLR8 cellular NFκB-luc reporter assay, wild type TLR8; assay type: cell-based; design: unit not given here; conditions: lowest effective concentration; for TLR8-wt_LEC: wild type TLR8 (compounds 1-73); for TLR 8 wt LEC: wild type TLR8 (compounds 74 onward)
T1 construct: expressed in transfected cells; host or cells: HEK293
T1 sequence (Q9NR97 27-1041): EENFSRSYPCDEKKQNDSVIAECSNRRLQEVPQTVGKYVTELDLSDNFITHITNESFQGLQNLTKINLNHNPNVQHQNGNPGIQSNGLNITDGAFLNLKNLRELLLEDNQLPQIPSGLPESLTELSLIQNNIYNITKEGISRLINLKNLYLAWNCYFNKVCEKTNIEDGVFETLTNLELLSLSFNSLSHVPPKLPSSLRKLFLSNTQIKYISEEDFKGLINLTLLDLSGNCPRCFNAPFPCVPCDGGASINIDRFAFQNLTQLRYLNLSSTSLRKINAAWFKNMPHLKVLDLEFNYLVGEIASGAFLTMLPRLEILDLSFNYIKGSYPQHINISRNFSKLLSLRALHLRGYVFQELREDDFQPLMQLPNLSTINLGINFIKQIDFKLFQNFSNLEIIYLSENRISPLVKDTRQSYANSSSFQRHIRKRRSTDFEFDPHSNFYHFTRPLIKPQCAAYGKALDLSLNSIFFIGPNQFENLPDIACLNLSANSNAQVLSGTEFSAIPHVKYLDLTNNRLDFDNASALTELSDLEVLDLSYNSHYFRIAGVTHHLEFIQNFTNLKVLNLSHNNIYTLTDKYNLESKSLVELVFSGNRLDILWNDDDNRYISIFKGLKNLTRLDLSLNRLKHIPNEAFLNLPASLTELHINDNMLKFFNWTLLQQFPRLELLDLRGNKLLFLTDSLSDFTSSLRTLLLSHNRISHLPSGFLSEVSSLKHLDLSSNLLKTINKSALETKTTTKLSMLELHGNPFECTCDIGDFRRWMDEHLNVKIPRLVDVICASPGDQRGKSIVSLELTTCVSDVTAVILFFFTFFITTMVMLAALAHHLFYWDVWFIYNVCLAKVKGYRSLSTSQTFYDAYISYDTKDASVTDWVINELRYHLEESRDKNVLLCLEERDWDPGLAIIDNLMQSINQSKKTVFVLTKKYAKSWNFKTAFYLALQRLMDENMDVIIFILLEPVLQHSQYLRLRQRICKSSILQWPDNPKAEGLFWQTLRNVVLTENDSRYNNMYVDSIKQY
Procedure, shortened: (§1)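 HEK293 cells transiently co-transfected (48 h, 37 °C) with CMV-TLR7 or TLR8 plasmid (wild type or second-LRR deletion mutant) plus NFκB-luc reporter. Cells exposed to compound for 6 h at 37 °C, 5% CO2; luciferase read-out. LEC from quadruplicate dose-response curves: concentration giving effect at least two fold above assay standard deviation.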

[2] = tested on: human TLR7 mutant sequence comprising a deletion in the second leucine-rich repeat; assay: TLR7 cellular NFκB-luc reporter assay, mutant TLR7 with deletion in the second leucine-rich repeat; assay type: cell-based; design: unit not given here; conditions: lowest effective concentration, TLR7 mutant with deletion in second leucine-rich repeat
Procedure, shortened: (§2)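 HEK293 cells transiently co-transfected with CMV-driven mutant TLR7 or TLR8 plasmid plus NFκB-luc reporter, cultured 48 h at 37 °C, then exposed to compound for 6 h at 37 °C, 5% CO2. Luciferase luminescence measured; dose-response curves from quadruplicates.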

[3] = tested on: HCV replicon in Huh-7 luc/neo cells; assay: Suppression of HCV replicon replication by conditioned media from compound-treated PBMC; assay type: cell-based, HCV type 1 b; conditions: Hepatitis C virus, Huh-7; read-out: PBMC-HUH7_EC50
Procedure, shortened: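 Human PBMC (≥2 donors, RPMI + 10% human AB serum, 2×10^5 cells/well) incubated overnight with compounds; supernatant transferred onto Huh-7 luc/neo HCV 1b replicon cells. After 24 h, replication read as luciferase activity. Recombinant interferon α-2a served as standard.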

[4] = tested on: human TLR8 mutant sequence comprising a deletion in the second leucine-rich repeat; assay: TLR8 cellular NFκB-luc reporter assay, mutant TLR8 with deletion in the second leucine-rich repeat; assay type: cell-based; design: unit not given here; conditions: lowest effective concentration, TLR8 mutant with deletion in second leucine-rich repeat
Procedure, shortened: as §2

[5] = target: T2, human TLR7 (wild type sequence) (Homo sapiens, UniProt Q9NYK1); assay: TLR7 cellular NFκB-luc reporter assay, wild type TLR7; assay type: cell-based; design: unit not given here; conditions: lowest effective concentration, wild type TLR7 (compounds 74 onward)
T2 construct: expressed in transfected cells; host or cells: HEK293
T2 sequence (Q9NYK1 27-1049): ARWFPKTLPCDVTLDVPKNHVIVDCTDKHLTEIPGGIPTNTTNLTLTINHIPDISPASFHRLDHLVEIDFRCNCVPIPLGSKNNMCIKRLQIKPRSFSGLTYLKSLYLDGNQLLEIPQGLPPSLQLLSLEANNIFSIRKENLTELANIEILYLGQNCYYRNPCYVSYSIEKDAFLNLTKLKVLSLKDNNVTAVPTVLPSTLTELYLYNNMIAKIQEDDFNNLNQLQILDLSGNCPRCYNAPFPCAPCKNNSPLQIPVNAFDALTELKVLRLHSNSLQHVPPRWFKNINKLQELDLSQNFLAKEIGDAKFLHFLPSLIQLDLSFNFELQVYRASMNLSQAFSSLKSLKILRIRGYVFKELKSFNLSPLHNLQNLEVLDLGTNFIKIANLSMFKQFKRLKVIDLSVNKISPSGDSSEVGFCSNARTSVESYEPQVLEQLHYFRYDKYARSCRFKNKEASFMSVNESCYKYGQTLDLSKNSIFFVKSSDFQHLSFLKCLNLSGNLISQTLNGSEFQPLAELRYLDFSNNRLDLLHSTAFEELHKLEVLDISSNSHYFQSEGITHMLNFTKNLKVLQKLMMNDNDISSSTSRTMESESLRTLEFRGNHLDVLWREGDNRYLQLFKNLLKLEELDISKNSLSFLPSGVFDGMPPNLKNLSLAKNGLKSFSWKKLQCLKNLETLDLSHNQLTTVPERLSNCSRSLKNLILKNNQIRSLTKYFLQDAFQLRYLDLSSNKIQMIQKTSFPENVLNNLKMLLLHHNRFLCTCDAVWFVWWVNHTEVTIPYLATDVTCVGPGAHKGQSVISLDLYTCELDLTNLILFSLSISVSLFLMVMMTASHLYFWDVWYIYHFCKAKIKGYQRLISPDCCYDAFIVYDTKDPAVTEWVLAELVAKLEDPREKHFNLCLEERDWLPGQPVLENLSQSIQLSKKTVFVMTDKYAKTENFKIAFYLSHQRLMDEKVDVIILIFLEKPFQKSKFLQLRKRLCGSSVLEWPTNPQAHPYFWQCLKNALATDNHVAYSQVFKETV
Procedure, shortened: as §1

[6] = tested on: interferon-stimulated responsive elements (ISRE) in HEK-ISREluc cells; assay: Activation of ISRE promoter elements by conditioned media from compound-treated PBMC; assay type: cell-based, human; design: unit not given here; conditions: conditioned media from compound-treated PBMC on HEK-ISREluc cells
Method: The potential of compounds to induce IFN-I was also evaluated by measuring the activation of interferon-stimulated responsive elements (ISRE) by conditioned media from PBMC. […] The plasmid pISRE-Luc from Clontech (ref. 631913) contains 5 copies of this ISRE element, followed by the firefly luciferase ORF. A HEK293 cell line stably transfected with pISRE-Luc (HEK-ISREluc) was established to profile of the conditioned PBMC cell culture media.
Briefly, PBMCs were prepared from buffy coats of at least two donors using a standard Ficoll centrifugation protocol. Isolated PBMCs were resuspended in RPMI medium supplemented with 10% human AB serum and 2×10^5 cells/well were dispensed into 384-well plates containing compounds (70 μL total volume). After overnight incubation, 10 μL of supernatant was transferred to 384-well plates containing 5×10^3 HEK-ISREluc cells/well in 30 μL (plated the day before). Following 24 hours of incubation, activation of the ISRE elements was measured by assaying luciferase activity using 40 μL/well Steady Lite Plus substrate (Perkin Elmer) and measured with ViewLux ultraHTS microplate imager (Perkin Elmer). The stimulating activity of each compound on the HEK-ISREluc cells was reported as LEC value, defined as the compound concentration applied to the PBMCs resulting in a luciferase activity at least two fold above the standard deviation of the assay. The LEC in turn indicates the degree of ISRE activation on transfer of a defined amount of PBMC culture medium. Recombinant interferon α-2a (Roferon-A) was used as a standard control compound.
For a given compound, the LEC value obtained from this assay were in the same range as the EC50 values obtained from the “suppression of HCV replication assay.” Thus, it is possible to compare the potential of compounds to induce IFN-I by PBMC, measured by either of the 2 assays.

Row | Compound | TLR 8 wt LEC [1] | TLR 7 wt LEC [5] | TLR8-wt_LEC [1] | TLR7-dIRR2_LEC [2] | EC50 [3] [µM] | TLR8-dIRR2_LEC [4] | HEK-ISREluc LEC [6]
1 | CCCCNc1nc(N)ncc1OCc1ccc(C(=O)O)cc1OC [Compound 67] | – | – | >24.59 | 2.31 | 2.43 | >24.59 | –
2 | CCCCNc1nc(N)ncc1OC(C)c1ccccc1 (stereo not shown) [Compound 69] | – | – | 6.43 | 3.75 | 6.16 | 2.22 | –
3 | CCCCNc1nc(N)ncc1Oc1ccccc1 [Compound 71] | – | – | >24.59 | >24.59 | 4.96 | >24.59 | –
4 | CCC[C@@H](CO)Nc1nc(N)ncc1OCc1ncc(C)c(OC)c1C [Compound 76] | 0.055 | 0.021 | – | – | – | – | 0.008
5 | CCCCNc1nc(N)ncc1OCc1cccc(CO)c1 [Compound 77] | 0.623 | 0.449 | – | – | – | – | 0.137
6 | CCCC[C@@H](CO)Nc1nc(N)ncc1OCc1cc(C)nn1C [Compound 79] | 0.329 | 1.620 | – | – | – | – | 0.235
7 | CCC[C@@H](CCO)Nc1nc(N)ncc1OCc1[nH]ccc(=O)c1OC [Compound 88] | – | – | – | – | – | – | 0.050

The next lines start with results.

Row | TLR 8 wt LEC [1] | TLR 7 wt LEC [5] | Compound | TLR8-wt_LEC [1] | TLR7-dIRR2_LEC [2] | EC50 [3] [µM] | TLR8-dIRR2_LEC [4] | HEK-ISREluc LEC [6]
8 | 0.041 | 0.560 | CCCC[C@@H](CO)Nc1nc(N)ncc1OCc1cccc(C(N)=O)n1 [Compound 80] | – | – | – | – | 0.027
9 | 0.429 | 0.101 | CCCC[C@@H](CCO)Nc1nc(N)ncc1OCc1cc(C)nn1C [Compound 81] | – | – | – | – | 0.086
10 | 3.750 | 0.646 | CCCCNc1nc(N)ncc1OCc1c[nH]nn1 [Compound 86] | – | – | – | – | 0.131
11 | 6.670 | 1.670 | CCCC[C@@H](CCOC(=O)NCC)Nc1nc(N)ncc1OC [Compound 89] | – | – | – | – | 0.526
